{"source": "patent US8815946B2", "about": "“Inhibition of proliferation and fibrotic response of activated corneal stromal cells” (University of Pittsburgh—of the Commonwealth System of …, priority 2008, dated 2014)", "key": {"[1]": {"tested_on": "α-SMA", "assay": "Immunocytochemical analysis of α-SMA expression, human corneal stromal cells", "assay_type": "cell-based", "settings": "10 mM EP", "description": "FIG. 3. Immunocytochemical analysis of α-SMA expression. Human corneal stromal cells in P2 growing in DMEM/F12 with 10% FBS were subcultured into desired number of 35 mm tissue culture dishes. After 24 hrs of incubation, the media were replaced with DMEM/F12 medium containing 1% FBS and TGF-β1 with or without (control) 10 mM EP and incubated for two and four days (media were changed every 24 hours). The cells were fixed and double stained for α-SMA (green) and phalloidin (red) using an indirect fluorescence technique as described herein.\nFor immunocytochemical analyses, the cells were cultured on glass cover slips or tissue culture dishes. Cells were rinsed with phosphate-buffered saline (PBS), fixed with paraformaldehyde-lysine-periodate and permeabilized with PIPES buffer containing 0.2% Triton X-100, as described previously (Guerriero et al., Invest. Opthalmol. Vis. Sci. 2007; 48: 627-635). Fixed and permeabilized cells were reacted with 10% heat-inactivated goat serum in PBS, pH 7.5, for 45 minutes to block the nonspecific binding of the secondary antibody, rinsed with PBS, and then treated with the primary and secondary antibodies as described previously (Guerriero et al. Invest. Opthalmol. Vis. Sci. 2007; 48: 627-635). Primary antibodies included monoclonal rat anti-α smooth muscle actin (SMA) and anti-fibronectin. […]"}, "[2]": {"tested_on": "extracellular matrix genes", "assay": "Microarray analysis (Affymetrix U133 Plus 2.0) of corneal stromal cells", "assay_type": "cell-based, human", "description": "Total RNA was processed and analyzed using the appropriate Affymetrix products (Affymetrix Inc., Santa Clara, Calif.). Eukaryote Poly A RNA internal standards (GeneChip® Poly-A RNA Control Kit from Affymetrix Inc.) were added to the samples, and the mRNA component of the total RNA was reverse-transcribed in the presence of a T7-(dT)24 primer (GeneChip® One-Cycle cDNA Synthesis Kit from Affymetrix Inc.). The resulting cDNA was extracted (GeneChip® Sample Cleanup Module from Affymetrix Inc.) and transcribed in vitro in the presence of biotin-labeled ribonucleotides (Labeling Kit from Affymetrix Inc.). The biotinylated RNA was extracted and fragmented (GeneChip® Sample Cleanup Module from Affymetrix Inc.: 20 μg material fragmented for 35 minutes at 94° C.). Each sample was hybridized overnight to a U133 PLUS™ 2.0 GeneChip (GeneChip® Human Genome U133 Plus 2.0 Array from Affymetrix Inc.). The chips were then washed, developed and scanned in Agilent CHIPSCANNER™ (Affymetrix Inc., Santa Clara, Calif.). Raw data was processed and analyzed using Affymetrix GENECHIP™ Operating System (GCOS) v 1.0.\nThe U133 PLUS™ 2.0 GeneChips contain 54,675 panels, each targeting a specific transcript sequence. Approximately 20,600 gene products identified by Entrez Gene numbers are redundantly targeted by 46,000 panels: the remaining panels target products which are less well characterized. Affymetrix GCOS™1.0 software was used to assess the presence or absence of the target sequence of each panel. Expression levels were normalized so that the mean for each sample was equal to the global mean for all samples. Panels, which were absent for every sample in either experiment, were omitted from further consideration. This left 23284 panels encoding 12258 unique, characterized (Entrez Gene) genes.\nIn earlier work, the changes in the gene expression upon activation of keratocyte to myofibroblast phenotype induced by TGF-β1 was studied. In the present analysis, as a cross check the present, consistent TGFβ-evoked (>2-fold) increases were checked with the previous data. Transition from keratocytes to fibroblasts increased 520 panels, and decreased 700 panels. The 599 unique, characterized genes so altered were compared with a previously acquired database of 873 genes known to be altered by phenotypic transition either from keratocyte to fibroblast or from fibroblast to myofibroblast. The number of genes concordant between these sets was 170, 4.9-fold greater than random chance (p=1.65×10^−130, chi-squared test). Extracellular matrix components: 244 panels (143 unique genes) with the Gene Ontology Cellular Component code 5578 (extracellular matrix) were selected. Of these, 28 were TGFβ-1 modulated in the present experiment and 49 were Consistent 5-fold increases in myofibroblasts.\nIn Table 1 are ECM genes altered by phenotype change, which are also affected by ethyl pyruvate. Genes in bold were altered during phenotype shifts only in previous experiments, genes in italics were altered by phenotype shift only in the present experiment, and genes in normal font were altered by phenotype shifts in both present and prior experiments."}, "[3]": {"settings": "three consistent (2-fold) changes of four potential"}, "[4]": {"settings": "two consistent (2-fold) changes of four potential"}}, "data": [{"smiles": "CCOC(=O)C(C)=O", "note": "[ethyl pyruvate]", "values": [{"measurement": "TGF-β1 induced expression of α-SMA (immunocytochemical)", "setting": "[1]", "result": "downregulated"}, {"measurement": "latent transforming growth factor beta binding protein 1 expression change", "setting": "[2]; four consistent (2-fold) changes of four potential", "result": "(−4.1)"}, {"measurement": "consistent increase of RGC32, HMOX1, GDF15 and TRIB3 expression", "setting": "[2]; myofibroblasts, only four characterized genes", "result": 5, "unit": "fold"}, {"measurement": "Tissue factor pathway inhibitor 2 expression change", "setting": "[2]; [3]", "result": "(−4.8)"}, {"measurement": "collagen, type III, alpha 1 expression change", "setting": "[2]; [3]", "result": "alpha 1 (−4.9)"}, {"measurement": "collagen, type X, alpha1 expression change", "setting": "[2]; [3]", "result": "alpha1 (−8.1)"}, {"measurement": "laminin, beta 1 expression change", "setting": "[2]; [3]", "result": "(−3.8)"}, {"measurement": "matrix metallopeptidase 10 (stromelysin 2) expression change", "setting": "[2]; [3]", "result": "(stromelysin 2) (3.8)"}, {"measurement": "periostin, osteoblast specific factor expression change", "setting": "[2]; [3]", "result": "specific factor (−9.7)"}, {"measurement": "secreted phosphoprotein 1 (osteopontin) expression change", "setting": "[2]; [3]", "result": "(osteopontin) (2.7)"}, {"measurement": "Collagen, type VIII, alpha 1 expression change", "setting": "[2]; [4]", "result": "alpha 1 (−4.0)"}, {"measurement": "EGF-containing fibulin-like extracellular matrix protein1 expression change", "setting": "[2]; [4]", "result": "(−2.6)"}, {"measurement": "SPARC-like 1 expression change", "setting": "[2]; [4]", "result": "SPARC-like 1 (−3.3)"}, {"measurement": "chondroitin sulfate proteoglycan 2 (versican) expression change", "setting": "[2]; [4]", "result": "(versican) (−5.9)"}, {"measurement": "collagen triple helix repeat containing 1 expression change", "setting": "[2]; [4]", "result": "containing 1 (−4.3)"}, {"measurement": "collagen, type I, alpha 2 expression change", "setting": "[2]; [4]", "result": "alpha 2 (−2.7)"}, {"measurement": "collagen, type V, alpha 1 expression change", "setting": "[2]; [4]", "result": "alpha 1 (−6.2)"}, {"measurement": "collagen, type VIII, alpha 2 expression change", "setting": "[2]; [4]", "result": "alpha 2 (−3.8)"}, {"measurement": "collagen, type XII, alpha1 expression change", "setting": "[2]; [4]", "result": "alpha1 (−2.8)"}, {"measurement": "fibronectin 1 expression change", "setting": "[2]; [4]", "result": "fibronectin 1 (−2.3)"}, {"measurement": "heparan sulfate proteoglycan 2 (perlecan) expression change", "setting": "[2]; [4]", "result": "(perlecan) (−3.0)"}, {"measurement": "laminin, alpha 4 expression change", "setting": "[2]; [4]", "result": "(−2.4)"}, {"measurement": "lysyl oxidase expression change", "setting": "[2]; [4]", "result": "lysyl oxidase (−4.0)"}, {"measurement": "matrix metallopeptidase 1 (interstitial collagenase) expression change", "setting": "[2]; [4]", "result": "collagenase) (5.9)"}, {"measurement": "secreted protein, acidic, cysteine-rich (osteonectin) expression change", "setting": "[2]; [4]", "result": "(osteonectin) (−8.4)"}, {"measurement": "tenascin C (hexabrachion) expression change", "setting": "[2]; [4]", "result": "(hexabrachion) (−7.4)"}, {"measurement": "collagen, type I, alpha 1 expression change", "setting": "[2]; two consistent (2-fold) ethyl pyruvate changes of four potential (2 phenotypes, 2 experiments)", "result": "alpha 1 (−2.9)"}]}]}
